Drawing on US12617797B2, “Substituted pyrazolo [1,5-a]pyrimidines having multimodal activity against pain” (ESTEVE PHARMACEUTICALS, S.A., priority 2020, dated 2026), this text covers Ki for 25 compounds.

The target in assay [1] is Human α2δ-1 subunit of Cav2.2 calcium channel (Homo sapiens, UniProt P54289). Put plainly: Human α2δ-1 subunit of Cav2.2 calcium channel assay ([3H]-gabapentin binding). To be noted: binding to the α2δ-1 subunit of voltage-gated calcium channels expressed as Ki; + also covers inhibition between 1% and 50%. An outline of the steps: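 Membranes enriched in human α2δ-1 incubated with 15 nM [3H]-gabapentin in 10 mM Hepes-KOH pH 7.4, 60 min at 27 °C; nonspecific binding defined with 10 μM pregabalin. Filtration and scintillation counting; % inhibition at 1 or 10 μM, or Ki from five concentrations.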

The target of assay [2] is T1, Human σ1 receptor (Homo sapiens, UniProt Q99720).
T1 construct: expressed in transfected cells; host or cells: HEK-293
Nature of the assay: Human σ1 receptor radioligand assay ([3H](+)-pentazocine binding, transfected HEK-293 membranes). Particulars: binding to σ1 receptor expressed as Ki; + also covers inhibition between 1% and 50%; read-out: σ-1 binding. The procedure, abridged: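 Membranes (7 μg) were incubated with 5 nM [3H](+)-pentazocine in 50 mM Tris-HCl pH 8 for 120 min at 37° C. Non-specific binding was defined with 10 μM haloperidol. Values are % inhibition at 1 or 10 μM or Ki from five concentrations, read by filtration and scintillation counting.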

Where only a bound is given, the exact number is not on record here.

T1 sequence (Q99720 whole entry): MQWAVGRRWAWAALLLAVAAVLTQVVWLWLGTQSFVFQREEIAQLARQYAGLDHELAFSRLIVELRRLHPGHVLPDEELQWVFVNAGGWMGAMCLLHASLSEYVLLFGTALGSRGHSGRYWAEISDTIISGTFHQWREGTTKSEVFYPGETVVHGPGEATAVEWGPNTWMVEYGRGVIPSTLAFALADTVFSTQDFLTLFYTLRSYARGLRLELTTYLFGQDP
Chain of Human α2δ-1 subunit of Cav2.2 calcium channel (P54289 25-1103): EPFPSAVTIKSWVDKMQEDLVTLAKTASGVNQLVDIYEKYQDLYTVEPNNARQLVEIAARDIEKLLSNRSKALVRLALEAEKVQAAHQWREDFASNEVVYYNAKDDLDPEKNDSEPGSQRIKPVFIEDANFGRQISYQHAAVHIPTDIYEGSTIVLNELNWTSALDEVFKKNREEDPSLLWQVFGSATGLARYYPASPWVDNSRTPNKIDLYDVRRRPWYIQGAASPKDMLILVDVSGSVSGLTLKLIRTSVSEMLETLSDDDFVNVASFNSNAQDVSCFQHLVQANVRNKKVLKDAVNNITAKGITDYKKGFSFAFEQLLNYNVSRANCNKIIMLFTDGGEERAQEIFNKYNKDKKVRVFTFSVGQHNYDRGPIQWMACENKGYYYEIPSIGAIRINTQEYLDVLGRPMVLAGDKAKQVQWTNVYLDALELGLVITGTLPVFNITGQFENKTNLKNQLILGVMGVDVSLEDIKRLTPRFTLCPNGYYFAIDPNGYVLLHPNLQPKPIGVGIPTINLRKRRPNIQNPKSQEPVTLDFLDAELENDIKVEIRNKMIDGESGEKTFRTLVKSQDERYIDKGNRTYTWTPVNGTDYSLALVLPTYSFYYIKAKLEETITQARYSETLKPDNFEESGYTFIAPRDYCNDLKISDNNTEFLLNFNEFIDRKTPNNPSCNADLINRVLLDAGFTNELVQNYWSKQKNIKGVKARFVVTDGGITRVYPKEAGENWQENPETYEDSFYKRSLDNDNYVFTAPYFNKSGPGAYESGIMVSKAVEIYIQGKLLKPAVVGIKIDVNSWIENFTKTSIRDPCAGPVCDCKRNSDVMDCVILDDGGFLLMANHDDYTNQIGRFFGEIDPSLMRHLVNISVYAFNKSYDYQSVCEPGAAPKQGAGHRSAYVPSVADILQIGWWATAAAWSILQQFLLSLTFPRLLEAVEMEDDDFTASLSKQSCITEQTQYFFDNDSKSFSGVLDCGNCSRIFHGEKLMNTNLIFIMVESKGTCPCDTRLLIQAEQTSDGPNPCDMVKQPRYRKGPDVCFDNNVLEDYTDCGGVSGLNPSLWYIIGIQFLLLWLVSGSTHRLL

`Cc1nn2c(C3CCCN(Cc4ccc(Cl)cc4)C3)ccnc2c1CN(C)Cc1c(F)cccc1F` (centres unmarked) [Example 229, 1-(7-(1-(4-Chlorobenzyl)piperidin-3-yl)-2-methylpyrazolo[1,5-a]pyrimidin-3-yl)-N-(2,6-difluorobenzyl)-N-methylmethanamine]: the Ki in assay [1] was 500 to 5000 nM; in assay [2] it was 500 to 1000 nM.
The like results for `Cc1nn2c(C3CCCN(Cc4ccc(Cl)cc4)C3)ccnc2c1CN(C)Cc1ccc(CO)cc1` (centres unmarked) [Example 230, (4-((((7-(1-(4-Chlorobenzyl)piperidin-3-yl)-2-methylpyrazolo[1,5-a]pyrimidin-3-yl)methyl)(methyl)amino)methyl)phenyl)methanol] were, in that order, 500 to 5000 nM and under 500 nM.
Consider `Cc1nn2c(C3CCCN(Cc4ccc(Cl)cc4)C3)ccnc2c1CN(C)CC1CCOCC1` (centres unmarked) [Example 231, 1-(7-(1-(4-Chlorobenzyl)piperidin-3-yl)-2-methylpyrazolo[1,5-a]pyrimidin-3-yl)-N-methyl-N-((tetrahydro-2H-pyran-4-yl)methyl)methanamine], for which the values for the Ki in assay [1] and in assay [2] were 500 to 5000 nM and under 500 nM, respectively.
For the compound `Cc1nn2c(C3CCCN(Cc4ccc(Cl)cc4)C3)ccnc2c1CN(CC1CCOCC1)C(C)C` (centres unmarked) [Example 232, N-((7-(1-(4-Chlorobenzyl)piperidin-3-yl)-2-methylpyrazolo[1,5-a]pyrimidin-3-yl)methyl)-N-((tetrahydro-2H-pyran-4-yl)methyl)propan-2-amine], the values for the Ki in assay [1] and in assay [2] were over 5000 nM and under 500 nM, respectively.
The corresponding values for `Cc1nn2c(C3CCCN(Cc4ccccc4)C3)ccnc2c1CN(CC1C[C@@H](C)O[C@@H](C)C1)C(C)C` (stereo partly drawn) [Example 233, N-((7-(1-Benzylpiperidin-3-yl)-2-methylpyrazolo[1,5-a]pyrimidin-3-yl)methyl)-N-(((2R,6S)-2,6-dimethyltetrahydro-2H-pyran-4-yl)methyl)propan-2-amine] are over 5000 nM and 500 to 1000 nM.
The corresponding values for `Cc1nn2c(C3CCCN(Cc4ccccc4)C3)ccnc2c1CN(C)CC1CC1` (centres unmarked) [Example 234, 1-(7-(1-Benzylpiperidin-3-yl)-2-methylpyrazolo[1,5-a]pyrimidin-3-yl)-N-(cyclopropylmethyl)-N-methylmethanamine] are 500 to 5000 nM and under 500 nM.
The like results for `Cc1nn2c(C3CCCN(Cc4ccc(Cl)cc4)C3)ccnc2c1CN(CC1CCOCC1)CC(F)(F)F` (centres unmarked) [Example 235, N-((7-(1-(4-Chlorobenzyl)piperidin-3-yl)-2-methylpyrazolo[1,5-a]pyrimidin-3-yl)methyl)-2,2,2-trifluoro-N-((tetrahydro-2H-pyran-4-yl)methyl)ethan-1-amine] were, in that order, over 5000 nM and 500 to 1000 nM.
`Cc1nn2c(C3CCCN(Cc4ccc(Cl)cc4)C3)ccnc2c1CCN(C)C` (centres unmarked) [Example 236, 2-(7-(1-(4-Chlorobenzyl)piperidin-3-yl)-2-methylpyrazolo[1,5-a]pyrimidin-3-yl)-N,N-dimethylethan-1-amine]: the Ki in assay [1] was 500 to 5000 nM; in assay [2], under 500 nM.
The corresponding values for `Cc1cnc2c(CNCC3CCOCC3)c(C)nn2c1C1CCCN(Cc2ccc(Cl)cc2)C1` (centres unmarked) [Example 237, 1-(7-(1-(4-Chlorobenzyl)piperidin-3-yl)-2,6-dimethylpyrazolo[1,5-a]pyrimidin-3-yl)-N-((tetrahydro-2H-pyran-4-yl)methyl)methanamine] are under 500 nM and under 500 nM.
The corresponding values for `Cc1cc(C2CCCN(Cc3ccc(Cl)cc3)C2)n2nc(C)c(CNCC3CCOCC3)c2n1` (centres unmarked) [Example 238, 1-(7-(1-(4-Chlorobenzyl)piperidin-3-yl)-2,5-dimethylpyrazolo[1,5-a]pyrimidin-3-yl)-N-((tetrahydro-2H-pyran-4-yl)methyl)methanamine] are 500 to 5000 nM and under 500 nM.
The corresponding values for `Cc1nn2c([C@H]3CCCN(Cc4ccccc4F)C3)ccnc2c1CNCC1CCOCC1` [Example 239, (S)-1-(7-(1-(2-Fluorobenzyl)piperidin-3-yl)-2-methylpyrazolo[1,5-a]pyrimidin-3-yl)-N-((tetrahydro-2H-pyran-4-yl)methyl)methanamine] are over 5000 nM and under 500 nM.
Take `Cc1nn2c([C@H]3CCCN(Cc4ccc(F)cc4F)C3)ccnc2c1CNCC1CCOCC1` [Example 240, (S)-1-(7-(1-(2,4-Difluorobenzyl)piperidin-3-yl)-2-methylpyrazolo[1,5-a]pyrimidin-3-yl)-N-((tetrahydro-2H-pyran-4-yl)methyl)methanamine]: the Ki in assay [1] is 500 to 5000 nM; in assay [2], under 500 nM.
The like results for `Cc1nn2c([C@H]3CCCN(Cc4cc(F)cc(F)c4)C3)ccnc2c1CNCC1CCOCC1` [Example 241, (S)-1-(7-(1-(3,5-Difluorobenzyl)piperidin-3-yl)-2-methylpyrazolo[1,5-a]pyrimidin-3-yl)-N-((tetrahydro-2H-pyran-4-yl)methyl)methanamine] were, in that order, over 5000 nM and under 500 nM.
The corresponding values for `COc1ccc(CN2CCCC(c3ccnc4c(CNCC5CCOCC5)c(C)nn34)C2)cc1` (centres unmarked) [Example 242, 1-(7-(1-(4-Methoxybenzyl)piperidin-3-yl)-2-methylpyrazolo[1,5-a]pyrimidin-3-yl)-N-((tetrahydro-2H-pyran-4-yl)methyl)methanamine] are over 5000 nM and under 500 nM.
For the compound `Cc1nn2c([C@H]3CCCN(Cc4ccccc4)C3)ccnc2c1CNC[C@@H]1CCN(C)C(=O)C1` [Example 243, (R)-4-((((7-((S)-1-Benzylpiperidin-3-yl)-2-methylpyrazolo[1,5-a]pyrimidin-3-yl)methyl)amino)methyl)-1-methylpiperidin-2-one], the Ki in assay [1] was 500 to 5000 nM; in assay [2], over 1000 nM.
The corresponding values for `Cc1nn2c([C@H]3CCCN(Cc4ccccc4)C3)ccnc2c1CNC[C@H]1CCN(C)C(=O)C1` [Example 244, (S)-4-((((7-((S)-1-Benzylpiperidin-3-yl)-2-methylpyrazolo[1,5-a]pyrimidin-3-yl)methyl)amino)methyl)-1-methylpiperidin-2-one] are 500 to 5000 nM and over 1000 nM.
The corresponding values for `Cc1nn2c([C@H]3CCCN(Cc4ccccc4)C3)ccnc2c1CNC[C@H]1CCC(=O)NC1` [Example 245, (R)-5-((((7-((S)-1-Benzylpiperidin-3-yl)-2-methylpyrazolo[1,5-a]pyrimidin-3-yl)methyl)amino)methyl)piperidin-2-one] are 500 to 5000 nM and over 1000 nM.
The like results for `Cc1nn2c([C@H]3CCCN(Cc4ccccc4)C3)ccnc2c1CNC[C@@H]1CCC(=O)NC1` [Example 246, (S)-5-((((7-((S)-1-Benzylpiperidin-3-yl)-2-methylpyrazolo[1,5-a]pyrimidin-3-yl)methyl)amino)methyl)piperidin-2-one] were, in that order, 500 to 5000 nM and over 1000 nM.
As to `CC(=O)N1CCC(CNCc2c(C)nn3c([C@H]4CCCN(Cc5ccc(F)c(F)c5)C4)ccnc23)CC1` [Example 247, (S)-1-(4-((((7-(1-(3,4-Difluorobenzyl)piperidin-3-yl)-2-methylpyrazolo[1,5-a]pyrimidin-3-yl)methyl)amino)methyl)piperidin-1-yl)ethan-1-one], the Ki in assay [1] and in assay [2] was under 500 nM each time.
In the case of `COc1nn2c(C3CCCN(Cc4ccccc4)C3)ccnc2c1CNCC1CCOCC1` (centres unmarked) [Example 248, 1-(7-(1-Benzylpiperidin-3-yl)-2-methoxypyrazolo[1,5-a]pyrimidin-3-yl)-N-((tetrahydro-2H-pyran-4-yl)methyl)methanamine], the Ki in assay [1] is 500 to 5000 nM; in assay [2], 500 to 1000 nM.
The corresponding values for `Cc1nn2c(CC3CCCN(Cc4ccc(Cl)cc4)C3)ccnc2c1-c1ccncc1` (centres unmarked) [Example 249, 7-((1-(4-Chlorobenzyl)piperidin-3-yl)methyl)-2-methyl-3-(pyridin-4-yl)pyrazolo[1,5-a]pyrimidine] are over 5000 nM and under 500 nM.
The corresponding values for `Cc1nn2c(CC3CCCN(Cc4cccc(Cl)c4)C3)ccnc2c1-c1ccncc1` (centres unmarked) [Example 250] are over 5000 nM and 500 to 1000 nM.
The corresponding values for `Cc1nn2c(CC3CCCN(Cc4ccc(Cl)cc4)C3)ccnc2c1CN(C)C` (centres unmarked) [Example 251, 1-(7-((1-(4-Chlorobenzyl)piperidin-3-yl)methyl)-2-methylpyrazolo[1,5-a]pyrimidin-3-yl)-N,N-dimethylmethanamine] are over 5000 nM and under 500 nM.
With `Cc1nn2c(CC3CCCN(Cc4cccc(Cl)c4)C3)ccnc2c1CN(C)C` (centres unmarked) [Example 252, 1-(7-((1-(3-Chlorobenzyl)piperidin-3-yl)methyl)-2-methylpyrazolo[1,5-a]pyrimidin-3-yl)-N,N-dimethylmethanamine], the figures for the Ki in assay [1] and in assay [2] were over 5000 nM and under 500 nM, respectively.
The like results for `Cc1nn2c(C3CCCCN(Cc4ccc(Cl)cc4)C3)ccnc2c1CNCC1CCOCC1` (centres unmarked) [Example 253, 1-(7-(1-(4-Chlorobenzyl)azepan-3-yl)-2-methylpyrazolo[1,5-a]pyrimidin-3-yl)-N-((tetrahydro-2H-pyran-4-yl)methyl)methanamine] were, in that order, over 5000 nM and under 500 nM.
